{"source": "ChEMBL document CHEMBL5291721", "about": "“A preclinical secondary pharmacology resource illuminates target-adverse drug reaction associations of marketed drugs” (Nat Commun, 2023)", "key": {"[1]": {"molecular_target": "T1, 5-hydroxytryptamine receptor 1A (Homo sapiens, UniProt P08908)", "T1 sequence (P08908 whole entry)": "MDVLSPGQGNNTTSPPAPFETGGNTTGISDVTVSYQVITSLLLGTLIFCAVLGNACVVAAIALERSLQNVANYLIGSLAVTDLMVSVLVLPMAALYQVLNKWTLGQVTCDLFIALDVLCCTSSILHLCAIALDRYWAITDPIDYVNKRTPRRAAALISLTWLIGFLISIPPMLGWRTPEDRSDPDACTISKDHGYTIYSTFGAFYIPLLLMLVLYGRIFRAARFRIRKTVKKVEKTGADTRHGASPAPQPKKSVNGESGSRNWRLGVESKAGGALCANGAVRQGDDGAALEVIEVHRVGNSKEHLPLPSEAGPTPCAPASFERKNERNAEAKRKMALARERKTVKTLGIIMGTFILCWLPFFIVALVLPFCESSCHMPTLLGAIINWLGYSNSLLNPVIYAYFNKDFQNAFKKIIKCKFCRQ"}, "[2]": {"molecular_target": "T2, Type-1 angiotensin II receptor (Homo sapiens, UniProt P30556)", "T2 sequence (P30556 whole entry)": "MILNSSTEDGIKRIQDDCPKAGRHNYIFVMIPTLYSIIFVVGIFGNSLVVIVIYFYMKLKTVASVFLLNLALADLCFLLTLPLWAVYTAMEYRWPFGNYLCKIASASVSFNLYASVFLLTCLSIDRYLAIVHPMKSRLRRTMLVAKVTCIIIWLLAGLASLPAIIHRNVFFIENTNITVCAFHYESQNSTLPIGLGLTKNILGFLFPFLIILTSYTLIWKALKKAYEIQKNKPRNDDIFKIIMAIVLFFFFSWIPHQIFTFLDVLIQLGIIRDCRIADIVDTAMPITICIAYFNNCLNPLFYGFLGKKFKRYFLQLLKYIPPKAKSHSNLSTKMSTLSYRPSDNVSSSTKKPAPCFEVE"}, "[3]": {"molecular_target": "T3, Muscarinic acetylcholine receptor M1 (Homo sapiens, UniProt P11229)", "T3 sequence (P11229 whole entry)": "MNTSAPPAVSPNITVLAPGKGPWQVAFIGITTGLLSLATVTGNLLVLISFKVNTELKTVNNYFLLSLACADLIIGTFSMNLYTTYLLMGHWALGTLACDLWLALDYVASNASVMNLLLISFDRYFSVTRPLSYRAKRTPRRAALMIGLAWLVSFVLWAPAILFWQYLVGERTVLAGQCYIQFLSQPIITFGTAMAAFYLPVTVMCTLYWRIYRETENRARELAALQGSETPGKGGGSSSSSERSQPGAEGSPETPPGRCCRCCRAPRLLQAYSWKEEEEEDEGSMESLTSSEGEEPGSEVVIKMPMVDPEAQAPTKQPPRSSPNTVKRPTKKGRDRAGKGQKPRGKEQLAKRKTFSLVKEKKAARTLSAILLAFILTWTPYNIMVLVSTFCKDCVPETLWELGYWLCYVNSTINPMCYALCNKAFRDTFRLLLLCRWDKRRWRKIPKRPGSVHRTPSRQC", "type": "functional, cell-based"}, "[4]": {"molecular_target": "T4, Muscarinic acetylcholine receptor M2 (Homo sapiens, UniProt P08172)", "T4 sequence (P08172 whole entry)": "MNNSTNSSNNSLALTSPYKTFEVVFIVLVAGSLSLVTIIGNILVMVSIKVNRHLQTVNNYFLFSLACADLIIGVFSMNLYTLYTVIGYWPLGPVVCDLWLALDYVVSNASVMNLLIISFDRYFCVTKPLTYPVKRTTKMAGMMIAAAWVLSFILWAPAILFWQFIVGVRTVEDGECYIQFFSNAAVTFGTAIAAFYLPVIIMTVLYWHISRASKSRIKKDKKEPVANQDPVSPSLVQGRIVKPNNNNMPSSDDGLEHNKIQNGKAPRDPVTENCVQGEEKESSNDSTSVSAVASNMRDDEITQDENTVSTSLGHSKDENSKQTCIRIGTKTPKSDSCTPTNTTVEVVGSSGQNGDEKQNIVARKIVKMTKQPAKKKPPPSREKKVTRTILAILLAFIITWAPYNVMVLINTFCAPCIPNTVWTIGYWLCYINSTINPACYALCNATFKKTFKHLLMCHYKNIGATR"}, "Thromboxane A2 receptor [5]": {"molecular_target": "T5, Thromboxane A2 receptor (Homo sapiens, UniProt P21731)", "T5 sequence (P21731 whole entry)": "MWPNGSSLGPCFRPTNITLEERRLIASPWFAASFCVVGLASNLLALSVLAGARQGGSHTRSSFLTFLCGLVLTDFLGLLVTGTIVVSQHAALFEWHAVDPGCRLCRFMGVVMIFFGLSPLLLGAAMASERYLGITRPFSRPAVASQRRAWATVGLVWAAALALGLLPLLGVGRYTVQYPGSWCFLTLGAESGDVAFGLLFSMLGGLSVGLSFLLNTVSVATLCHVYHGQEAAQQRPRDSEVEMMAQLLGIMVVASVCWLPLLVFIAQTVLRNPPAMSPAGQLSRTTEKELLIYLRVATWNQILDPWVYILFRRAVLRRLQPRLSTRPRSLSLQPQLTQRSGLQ", "type": "functional"}, "Thromboxane A2 receptor [6]": {"molecular_target": "T5, Thromboxane A2 receptor", "type": "functional, cell-based"}}, "note": "Several values for one entry are separate records, joined by “and”; a condition that tells them apart may be missing. Equal values may be shown once. Also: assay procedure not described here."}
{"molecule": "COc1ccccc1N1CCN(CCCNc2cc(=O)n(C)c(=O)n2C)CC1", "values": [{"measurement": "AC50", "setting": "[1]", "value": 260, "unit": "nM"}]}
{"molecule": "CCCCc1ncc(/C=C(\\Cc2cccs2)C(=O)O)n1Cc1ccc(C(=O)O)cc1", "note": "[EPROSARTAN]", "values": [{"measurement": "AC50", "setting": "[2]", "value": "5 nM and 5.5 nM"}]}
{"molecule": "CC(C[N+](C)(C)C)OC(N)=O", "note": "(stereo unspecified) [BETHANECHOL]", "values": [{"measurement": "AC50", "setting": "[3]", "value": 26000, "unit": "nM"}, {"measurement": "AC50", "setting": "[4]", "value": "> 30000", "unit": "nM"}]}
{"molecule": "CC(C)OC(=O)CCC/C=C\\C[C@@H]1[C@@H](CC[C@@H](O)CCc2ccccc2)[C@H](O)C[C@@H]1O", "note": "[LATANOPROST]", "values": [{"measurement": "AC50", "setting": "Thromboxane A2 receptor [5]", "value": "> 10000", "unit": "nM"}, {"measurement": "AC50", "setting": "Thromboxane A2 receptor [6]", "value": "> 10000", "unit": "nM"}]}
